Legend:
Estrogen receptor = target: T1, Estrogen receptor (Homo sapiens, UniProt P03372); assay: Displacement of fluorescent ligand from human recombinant GST-tagged ER-alpha ligand binding domain (307 to 554 residues) incubated for 15 mins by TR-FRET based competitive assay
T1 sequence (P03372 whole entry): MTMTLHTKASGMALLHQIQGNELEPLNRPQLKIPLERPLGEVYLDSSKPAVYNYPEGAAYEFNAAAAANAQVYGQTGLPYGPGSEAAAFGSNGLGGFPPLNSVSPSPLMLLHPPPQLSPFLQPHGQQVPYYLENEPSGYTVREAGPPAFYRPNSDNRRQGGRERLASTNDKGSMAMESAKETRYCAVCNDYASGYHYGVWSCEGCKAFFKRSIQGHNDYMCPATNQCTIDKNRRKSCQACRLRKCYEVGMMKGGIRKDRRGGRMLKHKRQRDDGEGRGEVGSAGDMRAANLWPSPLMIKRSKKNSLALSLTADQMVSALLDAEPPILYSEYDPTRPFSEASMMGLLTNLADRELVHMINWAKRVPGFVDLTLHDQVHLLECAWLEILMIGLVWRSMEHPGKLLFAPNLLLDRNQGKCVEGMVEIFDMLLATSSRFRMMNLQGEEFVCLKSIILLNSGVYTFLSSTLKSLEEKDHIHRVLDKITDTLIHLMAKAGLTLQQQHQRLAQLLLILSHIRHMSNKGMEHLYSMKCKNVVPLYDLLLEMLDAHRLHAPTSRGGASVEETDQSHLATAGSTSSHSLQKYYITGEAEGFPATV

[1] = target: Protein cereblon/Estrogen receptor (Homo sapiens, UniProt P03372+Q96SW2); assay: Protac activity at CRBN/ERalpha in human MCF7 cells assessed as induction of ERalpha protein degradation incubated for 8 to 22 hrs by immunofluorescence assay; type: cell-based
Protein cereblon/Estrogen receptor, sequence (Q96SW2 whole entry, one chain of several): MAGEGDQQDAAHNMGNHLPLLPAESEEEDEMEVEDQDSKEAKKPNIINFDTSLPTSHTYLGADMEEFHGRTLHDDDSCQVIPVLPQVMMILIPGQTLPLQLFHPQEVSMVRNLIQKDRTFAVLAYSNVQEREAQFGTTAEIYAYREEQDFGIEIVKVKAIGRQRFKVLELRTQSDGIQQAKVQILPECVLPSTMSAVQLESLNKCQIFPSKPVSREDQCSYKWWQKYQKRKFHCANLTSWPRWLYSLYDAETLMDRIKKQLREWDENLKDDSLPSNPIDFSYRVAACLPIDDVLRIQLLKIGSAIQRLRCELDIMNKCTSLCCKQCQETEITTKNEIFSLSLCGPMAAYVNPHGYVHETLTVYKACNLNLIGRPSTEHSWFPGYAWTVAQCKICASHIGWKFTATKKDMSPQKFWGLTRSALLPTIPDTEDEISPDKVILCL

Row | SMILES | IC50 (Estrogen receptor) | IC50 [1]
1 | C[C@@H]1Cc2c([nH]c3ccccc23)[C@@H](c2c(F)cc(OCCCCCN3CCN(c4ccc5c(c4)CN(C4CCC(=O)NC4=O)C5=O)CC3)cc2F)N1CC(C)(C)F (stereo partly drawn) | – | 0.6 nM
2 | C[C@@H]1Cc2c([nH]c3ccccc23)[C@@H](c2cnc(N3CCC(CCN4CCOC5(CC4)CCN(c4ccc6c(c4)CN(C4CCC(=O)NC4=O)C6=O)CC5)CC3)nc2)N1CC(C)(C)F (stereo partly drawn) | – | 0.5 nM
3 | C[C@@H]1Cc2c([nH]c3ccccc23)[C@@H](c2cnc(N3CCC(CCN4CCN(c5ccc6c(c5)CN(C5CCC(=O)NC5=O)C6=O)CC4)CC3)nc2)N1CC(C)(C)F (stereo partly drawn) | – | 0.5 nM
4 | C[C@@H]1Cc2c([nH]c3ccccc23)[C@@H](c2cnc(N3CCC(OCCN4CCN(c5ccc6c(c5)CN(C5CCC(=O)NC5=O)C6=O)CC4)CC3)nc2)N1CC(C)(C)F (stereo partly drawn) | – | 0.5 nM
5 | COc1cc(N2CCN(CC3CCN(c4ncc([C@@H]5c6[nH]c7ccccc7c6C[C@@H](C)N5CC(C)(C)F)cn4)CC3)CC2)cc2c1C(=O)N(C1CCC(=O)NC1=O)C2 (stereo partly drawn) | – | 0.7 nM
6 | C[C@@H]1Cc2c([nH]c3ccccc23)[C@@H](c2cnc(N3CCC(CCN4CCC5(CC4)CCN(c4ccc6c(c4)CN(C4CCC(=O)NC4=O)C6=O)CC5)CC3)nc2)N1CC(C)(C)F (stereo partly drawn) | – | 0.4 nM
7 | C[C@@H]1Cc2c([nH]c3ccccc23)[C@@H](c2cnc(N3CCC(CN4CCN(CC5CCN(c6ccc7c(c6)CN(C6CCC(=O)NC6=O)C7=O)CC5)CC4)CC3)nc2)N1CC(C)(C)F (stereo partly drawn) | – | 0.6 nM

Next, values leading:

Row | IC50 (Estrogen receptor) | IC50 [1] | SMILES
8 | 1.9 nM | 0.4 nM | C[C@@H]1Cc2c([nH]c3ccccc23)[C@@H](c2cnc(N3CCC4(CC3)CC(CN3CC5(CCN(c6ccc7c(c6)CN(C6CCC(=O)NC6=O)C7=O)CC5)C3)C4)nc2)N1CC(C)(C)F (stereo partly drawn)
9 | – | 0.4 nM | C[C@@H]1Cc2c([nH]c3ccccc23)[C@@H](c2cnc(OC3CCC4(CC3)CCN(CC3CCN(c5ccc6c(c5)CN(C5CCC(=O)NC5=O)C6=O)CC3)CC4)nc2)N1CC(C)(C)F (stereo partly drawn)
10 | – | 0.8 nM | C[C@@H]1Cc2c([nH]c3ccccc23)[C@@H](c2cnc(N3CCC4(CCN(CCC5CCN(c6ccc7c(c6)CN(C6CCC(=O)NC6=O)C7=O)CC5)CC4)CC3)nc2)N1CC(C)(C)F (stereo partly drawn)
11 | – | 0.4 nM | C[C@@H]1Cc2c([nH]c3ccccc23)[C@@H](c2cnc(N3CCC(CN4CCOC5(CC4)CCN(c4ccc6c(c4)CN(C4CCC(=O)NC4=O)C6=O)CC5)CC3)nc2)N1CC(C)(C)F (stereo partly drawn)
12 | – | 0.4 nM | COc1cc(N2CCN(CCC3CCN(c4ncc([C@@H]5c6[nH]c7ccccc7c6C[C@@H](C)N5CC(C)(C)F)cn4)CC3)CC2)cc2c1C(=O)N(C1CCC(=O)NC1=O)C2 (stereo partly drawn)

Reference: ChEMBL document CHEMBL4665908, “Estrogen Receptor Degrading PROTACS for the Treatment of Breast Cancer” (ACS Med Chem Lett, 2020)
